Assay results taken from PMC5050210, “BdorOBP83a-2 Mediates Responses of the Oriental Fruit Fly to Semiochemicals” (Frontiers in Physiology, 2016).

Tests used:
BdorOBP56h [1] = target: T1, BdorOBP56h (Bactrocera dorsalis, UniProt A0A0G2UMU0); test: direct fluorescence titration; type: binding; details: 50 mM Tris-HCl pH 7.4, 25°C; 2 μM protein, 1-16 μM 1-NPN; fluorescent probe
T1 construct: gene OBP56h; mature protein without signal peptide
T1 sequence (A0A0G2UMU0 20-136): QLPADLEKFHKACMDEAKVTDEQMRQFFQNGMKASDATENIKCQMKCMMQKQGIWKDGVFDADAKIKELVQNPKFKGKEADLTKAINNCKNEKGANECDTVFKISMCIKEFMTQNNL

BdorOBP84a-1 [2] = target: T2, BdorOBP84a-1 (Bactrocera dorsalis, UniProt A0A0G2UGI7); test: direct fluorescence titration; type: binding; details: 50 mM Tris-HCl pH 7.4, 25°C; 2 μM protein, 1-16 μM 1-NPN; fluorescent probe
T2 construct: gene OBP84a-1; mature protein without signal peptide
T2 sequence (A0A0G2UGI7 25-167): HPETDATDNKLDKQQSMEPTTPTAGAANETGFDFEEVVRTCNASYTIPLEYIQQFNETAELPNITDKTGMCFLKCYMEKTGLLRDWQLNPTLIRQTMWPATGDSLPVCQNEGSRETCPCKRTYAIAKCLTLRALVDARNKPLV

BdorCSP3 = target: T3, BdorCSP3 (Bactrocera dorsalis, UniProt A0A0G2UMR0); test: direct fluorescence titration; type: binding; details: 50 mM Tris-HCl pH 7.4, 25°C; 2 μM protein, 1-16 μM 1-NPN; fluorescent probe
T3 construct: gene CSP3; mature protein without signal peptide
T3 sequence (A0A0G2UMR0 23-156): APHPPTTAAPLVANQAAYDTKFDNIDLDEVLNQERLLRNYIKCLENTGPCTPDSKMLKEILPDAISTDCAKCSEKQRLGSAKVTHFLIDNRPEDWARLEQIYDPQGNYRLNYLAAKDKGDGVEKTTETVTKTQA

BdorOBP84a-2 = target: T4, BdorOBP84a-2 (Bactrocera dorsalis, UniProt A0A0G2UEQ7); test: direct fluorescence titration; type: binding; details: 50 mM Tris-HCl pH 7.4, 25°C; 2 μM protein, 1-16 μM 1-NPN; fluorescent probe
T4 construct: gene OBP84a-2; mature protein without signal peptide
T4 sequence (A0A0G2UEQ7 26-170): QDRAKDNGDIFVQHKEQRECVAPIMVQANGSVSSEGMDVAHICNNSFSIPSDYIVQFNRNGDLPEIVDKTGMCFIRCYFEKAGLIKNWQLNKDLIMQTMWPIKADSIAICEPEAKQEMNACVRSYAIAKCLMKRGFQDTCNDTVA

BdorOBP83a-1 [3] = target: T5, BdorOBP83a-1 (Bactrocera dorsalis, UniProt A0A0G2UGI4); test: direct fluorescence titration; type: binding; details: 50 mM Tris-HCl pH 7.4, 25°C; 2 μM protein, 1-16 μM 1-NPN; fluorescent probe
T5 construct: gene OBP83a-1; mature protein without signal peptide
T5 sequence (A0A0G2UGI4 32-155): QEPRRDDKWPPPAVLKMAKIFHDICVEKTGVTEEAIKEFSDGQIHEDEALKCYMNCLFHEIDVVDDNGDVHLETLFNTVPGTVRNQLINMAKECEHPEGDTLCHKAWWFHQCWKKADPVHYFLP

BdorOBP83a-2 [4] = target: T6, BdorOBP83a-2 (Bactrocera dorsalis, UniProt A0A0G2UEQ3); test: direct fluorescence titration; type: binding; details: 50 mM Tris-HCl pH 7.4, 25°C; 2 μM protein, 1-16 μM 1-NPN; fluorescent probe
T6 construct: gene OBP83a-2; mature protein without signal peptide
T6 sequence (A0A0G2UEQ3 24-148): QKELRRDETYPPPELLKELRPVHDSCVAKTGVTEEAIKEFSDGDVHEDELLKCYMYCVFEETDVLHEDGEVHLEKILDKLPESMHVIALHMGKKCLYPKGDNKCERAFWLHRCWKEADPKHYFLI

BdorOBP56h [5] = target: T1, BdorOBP56h; test: biochemical; parameters: Fluorescence competitive displacement of 1-NPN from recombinant OBP, 25 °C, pH 7.4; competitor 5-50 uM; details: 1-NPN displacement; for IC50: 2 uM protein, 2 uM 1-NPN, extrapolated, read-out: BdorOBP56 / IC50; for Kd: Kd from IC50, extrapolated, read-out: BdorOBP56 / Kd
Method: (§1) Fluorescence spectra were measured on an F-7000 FL Fluorescence Spectrophotometer (Hitachi) in a 10 mm light path quartz cuvette at 25°C. All were excited at 337 nm with emission and excitation slit of both 10 nm. The emission spectra were recorded between 350 and 500 nm. […] All measurements were performed in triplicates and mean values and standard errors are calculated. […] To determine the roles of specific OBPs in recognition of attractants in B. dorsalis, recombinant proteins of selected antenna-abundant OBPs and CSPs were obtained using a prokaryotic expression system (Figure 5). Purified OBPs and CSPs were used to determine binding affinity of each protein via fluorescence competitive binding assays. Thirteen pure attractant compounds were tested against each recombinant protein. […] Except for BdorCSP3 and BdorOBP84a-2, all remaining OBPs could bind to the tested compounds (Figure 6; Table S8). […] Alternatively they might be involved in functions other than odor detection. […] Overall, we observed lower binding affinity with our recombinant proteins and tested attractants. […] In other studies, much higher affinity has been reported. For example, competitive binding assays with a lepidopteran pheromone-binding protein can reach nearly 100% displacement (Hooper et al., [2009]; Gu et al., [2013]), and competitive binding assays with an aphid OBP (OBP7) can reach about 80% displacement with the alarm pheromone (E)-ss-farnesene (Sun et al., [2012]). The biological significance of the observed lower affinity with B. doralis OBPs here remains to be determined. It could be due to diverse binding mechanisms between different functional OBPs and the corresponding compounds. Alternatively, BdorOBP83a-2 may […] The sequences of BdorOBPs and BdorCSPs encoding mature proteins (without signal peptide) were amplified by PCR using specific primers carrying a restriction site EcoRI or XhoI (Table S2). PCR fragments were digested with both EcoRI and XhoI enzymes and the released DNA fragments were cloned into a PET-32a vector (Invitrogen), which were used to transform BL21 (DE3) E. coli competent cells (Invitrogen). A selected positive clone was grown overnight in 5 mL [compound left out] LB/ampicillin medium overnight at 37°C. Protein expression was induced with 1 mM IPTG for 3 h when the culture had reached an OD600-value of 0.7–0.9. Cells were then harvested by centrifugation and lysed by sonication. After sonication and centrifugation, most recombinant proteins were present in inclusion bodies. […] Renaturation of purified proteins were accomplished by gradient dilution at 4°C. His-tag was removed by digestion with recombinant enterokinase (Novagen) and the digested mixtures were passed through a HisTrap affinity column to remove any undigested protein. At each step during protein preparation and purification, protein extracts, and purified proteins were examined on 15% SDS-PAGE.

BdorOBP83a-2 [6] = target: T6, BdorOBP83a-2; test: biochemical; parameters: Fluorescence competitive displacement of 1-NPN from recombinant OBP, 25 °C, pH 7.4; competitor 5-50 uM; details: 1-NPN displacement, Kd from IC50
Method: as §1

BdorOBP84a-1 [7] = target: T2, BdorOBP84a-1; test: biochemical; parameters: Fluorescence competitive displacement of 1-NPN from recombinant OBP, 25 °C, pH 7.4; competitor 5-50 uM; details: 1-NPN displacement; for IC50: 2 uM protein, 2 uM 1-NPN, extrapolated; for Kd: Kd from IC50, extrapolated
Method: as §1

BdorOBP83a-1 [8] = target: T5, BdorOBP83a-1; test: biochemical; parameters: Fluorescence competitive displacement of 1-NPN from recombinant OBP, 25 °C, pH 7.4; competitor 5-50 uM; details: 1-NPN displacement, Kd from IC50, extrapolated
Method: as §1

BdorOBP83a-2 [9] = target: T6, BdorOBP83a-2; test: biochemical; parameters: Fluorescence competitive displacement of 1-NPN from recombinant OBP, 25 °C, pH 7.4; competitor 5-50 uM; details: 1-NPN displacement, 2 uM protein, 2 uM 1-NPN
Method: (§2) Fluorescence spectra were measured on an F-7000 FL Fluorescence Spectrophotometer (Hitachi) in a 10 mm light path quartz cuvette at 25°C. […] The emission spectra were recorded between 350 and 500 nm. […] All measurements were performed in triplicates and mean values and standard errors are calculated. […] To determine the roles of specific OBPs in recognition of attractants in B. dorsalis, recombinant proteins of selected antenna-abundant OBPs and CSPs were obtained using a prokaryotic expression system (Figure 5). Purified OBPs and CSPs were used to determine binding affinity of each protein via fluorescence competitive binding assays. Thirteen pure attractant compounds were tested against each recombinant protein. […] PCR fragments were digested with both EcoRI and XhoI enzymes and the released DNA fragments were cloned into a PET-32a vector (Invitrogen), which were used to transform BL21 (DE3) E. coli competent cells (Invitrogen). […] LB/ampicillin medium overnight at 37°C. Protein expression was induced with 1 mM IPTG for 3 h when the culture had reached an OD600-value of 0.7–0.9. Cells were then harvested by centrifugation and lysed by sonication. […] Renaturation of purified proteins were accomplished by gradient dilution at 4°C. His-tag was removed by digestion with recombinant enterokinase (Novagen) and the digested mixtures were passed through a HisTrap affinity column to remove any undigested protein. At each step during protein preparation and purification, protein extracts, and purified proteins were examined on 15% SDS-PAGE.

BdorOBP83a-1 [10] = target: T5, BdorOBP83a-1; test: biochemical; parameters: Fluorescence competitive displacement of 1-NPN from recombinant OBP, 25 °C, pH 7.4; competitor 5-50 uM; details: 1-NPN displacement, 2 uM protein, 2 uM 1-NPN, extrapolated
Method: as §2

BdorOBP84a-1 [11] = target: T2, BdorOBP84a-1; test: 1-NPN fluorescence competition; type: binding; details: 50 mM Tris-HCl pH 7.4, 25°C; 2 μM protein, 2 μM 1-NPN; competitive displacement
From the text: 1-NPN fluorescence competition on BdorOBP84a-1 | all remaining OBPs could bind to the tested compounds

BdorOBP83a-2 [12] = target: T6, BdorOBP83a-2; test: 1-NPN fluorescence competition; type: binding; details: 50 mM Tris-HCl pH 7.4, 25°C; 2 μM protein, 2 μM 1-NPN; competitive displacement
BdorOBP56h [13] = target: T1, BdorOBP56h; test: 1-NPN fluorescence competition; type: binding; details: 50 mM Tris-HCl pH 7.4, 25°C; 2 μM protein, 2 μM 1-NPN; competitive displacement
Method: 1-NPN fluorescence competition on BdorOBP56h | all remaining OBPs could bind to the tested compounds

BdorOBP83a-1 [14] = target: T5, BdorOBP83a-1; test: 1-NPN fluorescence competition; type: binding; details: 50 mM Tris-HCl pH 7.4, 25°C; 2 μM protein, 2 μM 1-NPN; competitive displacement

SMILES | IC50 (BdorOBP56h [5]) [µM] | Kd (BdorOBP56h [5]) [µM] | Kd (BdorOBP83a-2 [6]) [µM] | IC50 (BdorOBP84a-1 [7]) [µM] | Kd (BdorOBP84a-1 [7]) [µM] | Kd (BdorOBP83a-1 [8]) [µM] | IC50 (BdorOBP83a-2 [9]) [µM] | IC50 (BdorOBP83a-1 [10]) [µM] | further results
c1ccc(Nc2cccc3ccccc23)cc1 [1-NPN] |  |  |  |  |  |  |  |  | K1-NPN (BdorOBP56h [1]): exhibited high affinity to the fluorescent probe 1-NPN; K1-NPN (BdorOBP84a-1 [2]): exhibited high affinity to the fluorescent probe 1-NPN; K1-NPN (BdorCSP3): exhibited high affinity to the fluorescent probe 1-NPN; K1-NPN (BdorOBP84a-2): exhibited high affinity to the fluorescent probe 1-NPN; K1-NPN (BdorOBP83a-1 [3]): exhibited high affinity to the fluorescent probe 1-NPN; K1-NPN (BdorOBP83a-2 [4]): exhibited high affinity to the fluorescent probe 1-NPN
C=CC(O)CCCCC (stereo not drawn) [1-octen-3-ol] | > 50 | > 50 | > 50 | > 50 | > 50 | > 50 | > 50 | > 50 | 
c1ccc2scnc2c1 [Benzothiazole] | > 50 | > 50 | > 50 | > 50 | > 50 | > 50 | > 50 | > 50 | 
COc1cc(/C=C/CO)ccc1O [E-coniferyl alcohol] |  |  | > 50 | > 50 | > 50 | > 50 | > 50 | > 50 | 
CCOC(C)=O [Ethyl acetate] | > 50 | > 50 | > 50 |  |  | > 50 | > 50 | > 50 | 
CCOC(=O)c1ccccc1 [Ethyl benzoate] | > 50 | > 50 | > 50 | > 50 | > 50 |  | > 50 |  | 
C/C=C(\C)C(=O)OCC [Ethyl tiglate] | > 50 | > 50 | > 50 |  |  | > 50 | > 50 | > 50 | 
CC1=CCC(=C(C)C)CC1 [Terpinolene] | > 50 | > 50 | > 50 | > 50 | > 50 | > 50 | > 50 | > 50 | 
C=CCc1ccc(OC)c(OC)c1 [methyl eugenol, 4-allyl-1,2-dimethoxybenzene] | > 50 |  |  |  |  |  | 50.8 | > 50 | Kd (BdorOBP84a-1 [11]): 79700 µM; Kd (BdorOBP83a-2 [12]): 34 µM; Kd (BdorOBP56h [13]): 578 µM; Kd (BdorOBP83a-1 [14]): 2530 µM
CCCCCC1CCC(=O)O1 (stereo not drawn) [γ-nonanoic lactone] | > 50 | > 50 |  | > 50 | > 50 |  | > 50 |  | Kd (BdorOBP83a-2 [12]): 52.5 µM; Kd (BdorOBP83a-1 [14]): 85900 µM
CCCCC1CCC(=O)O1 (stereo not drawn) [γ-octalactone] | > 50 | > 50 |  | > 50 | > 50 |  | > 50 | > 50 | 
CCCCCCCC1CCC(=O)O1 (stereo not drawn) [γ-undecalactone] |  |  |  | > 50 | > 50 |  |  |  | 
CCCC1CCCC(=O)O1 (stereo not drawn) [δ-octalactone] | > 50 | > 50 |  |  |  |  | > 50 |  | Kd (BdorOBP83a-2 [12]): 54.7 µM; Kd (BdorOBP83a-1 [14]): 12700 µM
